Experimental data: US10117909B2, “Combination of an insulin and a GLP-1 agonist” (Sanofi-Aventis Deutschland GmbH, priority 2008, dated 2018)
Entries after “also recorded” stand apart in the source; their conditions may differ.

Assay: Oral glucose tolerance test (OGTT) in healthy dogs
Assay type: in vivo, dog
Conditions: male beagle, n=6, single s.c. injection at time 0, insulin glargine 0.3 U/kg, AVE0010 10 μg/kg, relative to Lantus placebo; for OGTT-induced postprandial increase in blood glucose: repeated OGTT 2 g/kg p.o. at 30 min and 5 h; for blood glucose concentration in the postabsorptive phase: repeated OGTT 2 g/kg p.o.
Description: Model: Oral glucose tolerance test (OGTT) in healthy dogs: Comparison of the insulin glargine/AVE0010 combination with the two individual active compounds.
• Male normoglycemic beagles • Bodyweight: ˜15 kg • Number per group: n=6 Study Design (See FIG. 1) • Individual subcutaneous injections of placebo or test formulation at time 0 • 2 oral administrations of glucose, at 2 g of glucose/kg of bodyweight, at times 30 min and 5 h • Blood samples are taken to determine blood glucose, plasma insulin, and c-peptide Group Division (n=6) • Placebo (Lantus placebo formulation without API) • Insulin glargine (0.3 μl/kg s.c., equivalent to 1.8 nmol/kg). Insulin glargine is Gly(A21)-Arg(B31)-Arg(B32) human insulin. • AVE0010 (10 μg/kg s.c. in Lantus placebo formulation, equivalent to 2 nmol/kg).
AVE0010 is des Pro^36exendin-4(1-39)-Lys6-NH2. • AVE0010/insulin glargine combination (10 μg/kg AVE0010/0.3 μl/kg insulin glargine s.c.)

Substance	OGTT-induced postprandial increase in blood glucose	blood glucose concentration in the postabsorptive phase
Gly(A21)-Arg(B31)-Arg(B32) human insulin [insulin glargine]	does not prevent the OGTT-induced increase in blood glucose; also recorded: has no effect on the postprandial glucose level	reinforces the expected delayed lowering of blood glucose concentration in the postabsorptive phase
des Pro^36exendin-4(1-39)-Lys6-NH2 [AVE0010]	prevents the OGTT-induced postprandial increase in blood glucose almost completely	no effect on the glucose concentration in the postabsorptive phase; also recorded: has no effect on the level of glucose, which has fallen again following administration of glucose
